# Test results: the supplement of paper PMC11208160
# Assay: recombinant UMI read abundance after kanamycin selection (control-corrected) (log10(CPM+1)); higher = more efficient recombination; extreme values may be limits of the assay; sequences stand for … in AGTGCAGAGAAAATCGGCCAGTTTTCTCTGCCTGCAGTCCGCATGCCGTGGGACCCCTTGGGTTCTAACCTGTTGCCTAGATTTATGCAGCGGACTGCCTTTCTCCCAAAGTGATAAACCGG…AGGTTGGTTTCACT; site = the 11-nt donor
# Outline: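 After plating on IPTG (0.07 mM) plus kanamycin, or unselected, in two replicates, recombinant UMIs were PCR-amplified across the donor–target junction and sequenced. The cells were Escherichia coli co-electroporated with a UMI-tagged donor and donor-binding-loop pair library and a target plasmid with a fixed target and T7-inducible IS621 bridge recombinase. Values are log10(CPM+1), with CPM averaged over replicates and scaled by control-derived factors.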
row,Sequence,recombinant UMI read abundance (log10)
1,TGGTGATCATGGACCGGTTTTCCCGGTAATCCGTATTTGGG (site TGGTGATCTCC),0.238
2,TGGTGGACATGGACCGGTTTTCCCGGTAATCCGTATTTGTT (site TGGTGGACTAA),0.734
3,TGGTTATCATGGACCGGTTTTCCCGGTAATCCGTATTTGGT (site TGGTTATCTAC),1.78
4,TGGTTCGCATGGACCGGTTTTCCCGGTAATCCGTATTTGGA (site TGGTTCGCTTC),0.00761
5,TGGTTTCCATGGACCGGTTTTCCCGGTAATCCGTATTTGCA (site TGGTTTCCTTG),0
6,TGTAAGACATGGACCGGTTTTCCCGGTAATCCGTATTTGCG (site TGTAAGACTCG),0.934
7,TGTAAGCCATGGACCGGTTTTCCCGGTAATCCGTATTTGAC (site TGTAAGCCTGT),0
8,TGTACACCATGGACCGGTTTTCCCGGTAATCCGTATTTGCC (site TGTACACCTGA),0
9,TGTACACCATGGACCGGTTTTCCCGGTAATCCGTATTTGCC (site TGTACACCTGC),0
10,TGTACACCATGGACCGGTTTTCCCGGTAATCCGTATTTGCC (site TGTACACCTGG),0
11,TGTACACCATGGACCGGTTTTCCCGGTAATCCGTATTTGCC (site TGTACACCTGT),0
12,TGTACAGCATGGACCGGTTTTCCCGGTAATCCGTATTTGAA (site TGTACAGCTTT),0.369
13,TGTACCACATGGACCGGTTTTCCCGGTAATCCGTATTTGTA (site TGTACCACTTA),0.131
14,TGTAGACCATGGACCGGTTTTCCCGGTAATCCGTATTTGAC (site TGTAAACCTGT),0
15,TGTAGACCATGGACCGGTTTTCCCGGTAATCCGTATTTGAC (site TGTACACCTGT),0
16,TGTAGACCATGGACCGGTTTTCCCGGTAATCCGTATTTGAC (site TGTAGACCTGT),0

row,Sequence,recombinant UMI read abundance (log10)
1,TGTAGACCATGGACCGGTTTTCCCGGTAATCCGTATTTGAC (site TGTATACCTGT),0
2,TGTAGGTCATGGACCGGTTTTCCCGGTAATCCGTATTTGAA (site TGTAGGTCTTT),0.238
3,TGTAGGTCATGGACCGGTTTTCCCGGTAATCCGTATTTGGT (site TGTAGGTCTAC),0.355
4,TGTATACCATGGACCGGTTTTCCCGGTAATCCGTATTTGAC (site TGTAAACCTGT),0
5,TGTATACCATGGACCGGTTTTCCCGGTAATCCGTATTTGAC (site TGTACACCTGT),0
6,TGTATACCATGGACCGGTTTTCCCGGTAATCCGTATTTGAC (site TGTAGACCTGT),0
7,TGTATACCATGGACCGGTTTTCCCGGTAATCCGTATTTGAC (site TGTATACCTGT),0
8,TGTCAGCCATGGACCGGTTTTCCCGGTAATCCGTATTTGGC (site TGTCAGCCTGC),0.0152
9,TGTCCACCATGGACCGGTTTTCCCGGTAATCCGTATTTGAC (site TGTACACCTGT),0
10,TGTCCACCATGGACCGGTTTTCCCGGTAATCCGTATTTGAC (site TGTCCACCTGT),0
11,TGTCCACCATGGACCGGTTTTCCCGGTAATCCGTATTTGAC (site TGTGCACCTGT),0
12,TGTCCACCATGGACCGGTTTTCCCGGTAATCCGTATTTGAC (site TGTTCACCTGT),0
13,TGTCCAGCATGGACCGGTTTTCCCGGTAATCCGTATTTGTG (site TGTCCAGCTCA),0.0483
14,TGTCCTACATGGACCGGTTTTCCCGGTAATCCGTATTTGTG (site TGTCCTACTCA),0.266
15,TGTCGTCCATGGACCGGTTTTCCCGGTAATCCGTATTTGAG (site TGTCGTCCTCT),0.0062
16,TGTGACGCATGGACCGGTTTTCCCGGTAATCCGTATTTGTG (site TGTGACGCTCA),0.239
